# Data taken from patent USRE48711E1, “Apoptosis signal-regulating kinase inhibitors” (Gilead Sciences, Inc., priority 2009, dated 2021).
# Where two headings read alike, the source gives them in different places.
# Biological target: ASK1 (Apoptosis Signal-Regulating Kinase 1) (Homo sapiens (Human), UniProt Q99683)
# Test: ASK1 (Apoptosis Signal-Regulating Kinase 1) TR-FRET Kinase Assay (Biochemical IC50)
# [1] = TR-FRET, biotin-MBP substrate, 20 min pre-incubation, ATP added as 300 μM solution
# Chain of ASK1 (Apoptosis Signal-Regulating Kinase 1) (Q99683 649-946): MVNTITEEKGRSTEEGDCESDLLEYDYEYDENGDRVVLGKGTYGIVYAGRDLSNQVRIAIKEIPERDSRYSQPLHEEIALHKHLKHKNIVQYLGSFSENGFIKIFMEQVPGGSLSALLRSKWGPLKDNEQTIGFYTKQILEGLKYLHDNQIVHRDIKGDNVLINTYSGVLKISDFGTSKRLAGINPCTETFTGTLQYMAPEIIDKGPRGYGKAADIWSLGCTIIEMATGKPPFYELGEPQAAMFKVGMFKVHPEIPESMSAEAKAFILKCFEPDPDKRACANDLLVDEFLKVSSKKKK
IC50 [1],IC50,Compound
701 nM,,"Cn1cnnc1-c1cccc(NC(=O)c2cc(-c3ccccc3)ccn2)c1 [Example 4, N-(3-(4-methyl-4H-1,2,4-triazol-3-yl)phenyl)-4-phenylpicolinamide]"
220 nM,,"Cn1cnnc1-c1cccc(NC(=O)c2cncc(-c3cccnc3)c2)c1 [Example 8, N-(3-(4-methyl-4H-1,2,4-triazol-3-yl)phenyl)-3,3′-bipyridine-5-carboxamide]"
40 nM,,"COc1cncc(-c2ccnc(C(=O)Nc3cccc(-c4nncn4C)c3)c2)c1 [Example 11, 5-methoxy-N-(3-(4-methyl-4H-1,2,4-triazol-3-yl)phenyl)-3,4′-bipyridine-2′-carboxamide]"
39 nM,,"Cn1cncc1-c1ccnc(C(=O)Nc2cccc(-c3nncn3C)c2)c1 [Example 18, 4-(1-methyl-1H-imidazol-5-yl)-N-(3-(4-methyl-4H-1,2,4-triazol-3-yl)phenyl)picolinamide]"
39 nM,,"C[C@@H](CO)n1cnnc1-c1cccc(NC(=O)c2cc(-c3cccnc3)ccn2)c1 [Example 20, (S)-N-(3-(4-(1-hydroxypropan-2-yl)-4H-1,2,4-triazol-3-yl)phenyl)-3,4′-bipyridine-2′-carboxamide]"
9 nM,,"Nc1ccc(-c2ccnc(C(=O)Nc3cccc(-c4nncn4C4CC4)c3)c2)cn1 [Example 22, 6-amino-N-(3-(4-cyclopropyl-4H-1,2,4-triazol-3-yl)phenyl)-3,4′-bipyridine-2′-carboxamide]"
1970 nM,,"O=C(Nc1cccc(-c2nncn2C2CCOCC2)c1)c1cc(-c2cccnc2)ccn1 [Example 26, N-(3-(4-(tetrahydro-2H-pyran-4-yl)-4H-1,2,4-triazol-3-yl)phenyl)-3,4′-bipyridine-2′-carboxamide]"
11 nM,,"O=C(Nc1cccc(-c2nncn2C2CC2)c1)c1cc(-n2ccnc2)ccn1 [Example 27, N-(3-(4-cyclopropyl-4H-1,2,4-triazol-3-yl)phenyl)-4-(1H-imidazol-1-yl)picolinamide]"
443 nM,,"CN1CCN(c2ccnc(C(=O)Nc3cccc(-c4nncn4C)c3)c2)CC1 [Example 29, N-(3-(4-methyl-4H-1,2,4-triazol-3-yl)phenyl)-4-(4-methylpiperazin-1-yl)picolinamide]"
335 nM,,"Cn1cnnc1-c1cccc(NC(=O)c2cc(N3CCOCC3)ccn2)c1 [Example 30, N-(3-(4-methyl-4H-1,2,4-triazol-3-yl)phenyl)-4-morpholinopicolinamide]"
63 nM,,"O=C(Nc1cccc(-c2nncn2C2CC2)c1)c1cc(-c2ccc(O)nc2)ccn1 [Example 31, N-(3-(4-cyclopropyl-4H-1,2,4-triazol-3-yl)phenyl)-6-hydroxy-3,4′-bipyridine-2′-carboxamide]"
569 nM,,"Cn1cnnc1-c1cccc(NC(=O)c2cc(N3CCNC(=O)C3)ccn2)c1 [Example 32, N-(3-(4-methyl-4H-1,2,4-triazol-3-yl)phenyl)-4-(3-oxopiperazin-1-yl)picolinamide]"
3480 nM,,"Cn1cnnc1-c1cccc(NC(=O)c2cc(N3CCC(N)C3)ccn2)c1 (stereo not shown) [Example 33, 4-(3-aminopyrrolidin-1-yl)-N-(3-(4-methyl-4H-1,2,4-triazol-3-yl)phenyl)picolinamide]"
,195 nM,"C[C@@H](O)Cn1cnnc1-c1cccc(NC(=O)c2cc(-c3cccnc3)ccn2)c1 [Example 34, (R)-N-(3-(4-(2-hydroxypropyl)-4H-1,2,4-triazol-3-yl)phenyl)-3,4′-bipyridine-2′-carboxamide]"
87 nM,,"C[C@H](O)Cn1cnnc1-c1cccc(NC(=O)c2cc(-c3cccnc3)ccn2)c1 [Example 35, (S)-N-(3-(4-(2-hydroxypropyl)-4H-1,2,4-triazol-3-yl)phenyl)-3,4′-bipyridine-2′-carboxamide]"
18 nM,,"Cn1cncc1-c1ccnc(C(=O)Nc2cccc(-c3nncn3C3CC3)c2)c1 [Example 36, N-(3-(4-cyclopropyl-4H-1,2,4-triazol-3-yl)phenyl)-4-(1-methyl-1H-imidazol-5-yl)picolinamide]"
17 nM,,"O=C(Nc1cccc(-c2nncn2C2CC2)c1)c1cc(-n2cnc(-c3ccccc3)c2)ccn1 [Example 38, N-(3-(4-cyclopropyl-4H-1,2,4-triazol-3-yl)phenyl)-4-(4-phenyl-1H-imidazol-1-yl)picolinamide]"
63 nM,,"O=C(Nc1cccc(-c2nncn2C2CCC2)c1)c1cc(-c2cccnc2)ccn1 [Example 39, N-(3-(4-cyclobutyl-4H-1,2,4-triazol-3-yl)phenyl)-3,4′-bipyridine-2′-carboxamide]"
75 nM,,"O=C(Nc1cccc(-c2nncn2C2CCCC2)c1)c1cc(-c2cccnc2)ccn1 [Example 40, N-(3-(4-cyclopentyl-4H-1,2,4-triazol-3-yl)phenyl)-3,4′-bipyridine-2′-carboxamide]"
48 nM,,"Cc1nccn1-c1ccnc(C(=O)Nc2cccc(-c3nncn3C3CC3)c2)c1 [Example 41, N-(3-(4-cyclopropyl-4H-1,2,4-triazol-3-yl)phenyl)-4-(2-methyl-1H-imidazol-1-yl)picolinamide]"
11 nM,,"Cc1cn(-c2ccnc(C(=O)Nc3cccc(-c4nncn4C4CC4)c3)c2)cn1 [Example 42, N-(3-(4-cyclopropyl-4H-1,2,4-triazol-3-yl)phenyl)-4-(4-methyl-1H-imidazol-1-yl)picolinamide]"
27 nM,,"O=C(Nc1cccc(-c2nncn2C2CC2)c1)c1cc(-n2cnc(C(F)(F)F)c2)ccn1 [Example 44, N-(3-(4-cyclopropyl-4H-1,2,4-triazol-3-yl)phenyl)-4-(4-(trifluoromethyl)-1H-imidazol-1-yl)picolinamide]"
32 nM,,"O=C(Nc1cccc(-c2nncn2C2CC2)c1)c1cc(-c2ccc(N3CCCC3)nc2)ccn1 [Example 47, N-(3-(4-cyclopropyl-4H-1,2,4-triazol-3-yl)phenyl)-6-(pyrrolidin-1-yl)-3,4′-bipyridine-2′-carboxamide]"
37 nM,,"Cc1cc(-c2ccnc(C(=O)Nc3cccc(-c4nncn4C4CC4)c3)c2)cnc1F [Example 48, N-(3-(4-cyclopropyl-4H-1,2,4-triazol-3-yl)phenyl)-6-fluoro-5-methyl-3,4′-bipyridine-2′-carboxamide]"

# Further lines, the compound ahead of its results:
Compound,IC50 [1],IC50
"Cn1cnnc1-c1cccc(NC(=O)c2cncc(-c3ccccc3)c2)c1 [Example 2, N-(3-(4-methyl-4H-1,2,4-triazol-3-yl)phenyl)-5-phenylnicotinamide]",5590 nM,
"Cn1cnnc1-c1cccc(NC(=O)c2cc(-c3cccnc3)ccn2)c1 [Example 9, N-(3-(4-methyl-4H-1,2,4-triazol-3-yl)phenyl)-3,4′-bipyridine-2′-carboxamide]",42 nM,
"Cn1cnnc1-c1cccc(NC(=O)c2cc(-c3cnc4ccccn34)ccn2)c1 [Example 13, 4-(imidazo[1,2-a]pyridin-3-yl)-N-(3-(4-methyl-4H-1,2,4-triazol-3-yl)phenyl)picolinamide]",44 nM,
"O=C(Nc1cccc(-c2nncn2C2CC2)c1)c1cc(-c2ccccc2)ccn1 [Example 14, N-(3-(4-cyclopropyl-4H-1,2,4-triazol-3-yl)phenyl)-4-phenylpicolinamide]",279 nM,
"O=C(Nc1cccc(-c2nncn2C2CC2)c1)c1cc(-c2cccnc2)ccn1 [Example 15, N-(3-(4-cyclopropyl-4H-1,2,4-triazol-3-yl)phenyl)-3,4′-bipyridine-2′-carboxamide]",11 nM,
"NC(=O)CCn1cnnc1-c1cccc(NC(=O)c2cc(-c3cccnc3)ccn2)c1 [Example 16, N-(3-(4-(3-amino-3-oxopropyl)-4H-1,2,4-triazol-3-yl)phenyl)-3,4′-bipyridine-2′-carboxamide]",114 nM,
"C[C@H](CO)n1cnnc1-c1cccc(NC(=O)c2cc(-c3cccnc3)ccn2)c1 [Example 19, (R)-N-(3-(4-(1-hydroxypropan-2-yl)-4H-1,2,4-triazol-3-yl)phenyl)-3,4′-bipyridine-2′-carboxamide]",9 nM,
"COc1ccc(-c2ccnc(C(=O)Nc3cccc(-c4nncn4C4CC4)c3)c2)cn1 [Example 21, N-(3-(4-cyclopropyl-4H-1,2,4-triazol-3-yl)phenyl)-6-methoxy-3,4′-bipyridine-2′-carboxamide]",12 nM,
"COC(=O)Nc1ccc(-c2ccnc(C(=O)Nc3cccc(-c4nncn4C4CC4)c3)c2)cn1 [Example 23, methyl 2′-(3-(4-cyclopropyl-4H-1,2,4-triazol-3-yl)phenylcarbamoyl)-3,4′-bipyridin-6-ylcarbamate]",167 nM,
"O=C(Nc1cccc(-c2nncn2C2CC2)c1)c1cc(-c2cncnc2)ccn1 [Example 24, N-(3-(4-cyclopropyl-4H-1,2,4-triazol-3-yl)phenyl)-4-(pyrimidin-5-yl)picolinamide]",21 nM,
"Nc1ncc(-c2ccnc(C(=O)Nc3cccc(-c4nncn4C4CC4)c3)c2)cn1 [Example 25, 4-(2-aminopyrimidin-5-yl)-N-(3-(4-cyclopropyl-4H-1,2,4-triazol-3-yl)phenyl)picolinamide]",13 nM,
"O=C(Nc1cccc(-c2nncn2C2CC2)c1)c1cc(-n2cncn2)ccn1 [Example 28, N-(3-(4-cyclopropyl-4H-1,2,4-triazol-3-yl)phenyl)-4-(1H-1,2,4-triazol-1-yl)picolinamide]",110 nM,
"O=C(Nc1cccc(-c2nncn2C2CC2)c1)c1cc(-n2cnc3ccccc32)ccn1 [Example 37, 4-(1H-benzo[d]imidazol-1-yl)-N-(3-(4-cyclopropyl-4H-1,2,4-triazol-3-yl)phenyl)picolinamide]",8 nM,
"Cc1ncn(-c2ccnc(C(=O)Nc3cccc(-c4nncn4C4CC4)c3)c2)c1C [Example 43, N-(3-(4-cyclopropyl-4H-1,2,4-triazol-3-yl)phenyl)-4-(4,5-dimethyl-1H-imidazol-1-yl)picolinamide]",8 nM,
"COc1ncc(-c2ccnc(C(=O)Nc3cccc(-c4nncn4C4CC4)c3)c2)cn1 [Example 45, N-(3-(4-cyclopropyl-4H-1,2,4-triazol-3-yl)phenyl)-4-(2-methoxypyrimidin-5-yl)picolinamide]",9 nM,
"Cc1cc(-c2cccnc2)cc(C(=O)Nc2cccc(-c3nncn3C)c2)n1 [Example 46, 6′-methyl-N-(3-(4-methyl-4H-1,2,4-triazol-3-yl)phenyl)-3,4′-bipyridine-2′-carboxamide]",212 nM,
